Assay [1] deals with HeLa. Description: Inhibition of cellular nuclear export of endogenous cargo RanBP1 in human HeLa cells transfected with pmCherry-C1 plasmid at 1 to 10 uM incubated for 12 hrs by confocal microscope analysis. The format is functional, cell-based. Conditions: dose 1-10 µM.
For assay [2], the system named is HeLa. The assay can be described thus: Cytotoxicity against human HeLa cells transfected with hCRM1-C528S-mutant assessed as cell viability measured for 72 hrs replaced with compound containing fresh culture medium every 12 hrs by Sulforhodamine B assay. The format is functional, cell-based. (In general: The SRB assay estimates cell density from bound dye.)
Assay [3] deals with HeLa. The assay can be described thus: Anti-cancer activity against human HeLa cells assessed as cell viability at 20 uM incubated for 2 hrs by EdU incorporation based assay. The format is functional.
For assay [4], the system named is A549. Description: Anti-cancer activity against human A549 cells assessed as cell survival at 10 uM for 72 hrs replaced with compound containing fresh culture medium every 12 hrs by Sulforhodamine B assay. The format is functional, cell-based.
The subject of another assay is Saccharomyces cerevisiae. The assay can be described thus: Inhibition of NES binding to yeast CRM1-T539 mutant in absence of RanGTP at 20 uM by pull down assay.
Assay [5] deals with A2780. Description: Induction of apoptosis in human A2780 cells assessed as viable cells at 5 uM replaced with compound containing fresh culture medium every 12 hrs measured for 72 hrs by Annexin V FITC/propidium iodide staining based flow cytometric analysis (reference value: 93.97%). The format is functional. Conditions: read-out: Activity. (Flow cytometry measures light scatter and fluorescence of single cells or particles in a stream.)

The subject of assay [6] is A2780. The assay can be described thus: Induction of apoptosis in human A2780 cells assessed as early apoptotic cells at 1 uM replaced with compound containing fresh culture medium every 12 hrs measured for 72 hrs by Annexin V FITC/propidium iodide staining based flow cytometric analysis (reference value: 3.67%). Format: functional.
Assay [7] relates to A2780. The assay can be described thus: Induction of apoptosis in human A2780 cells assessed as necrotic cells at 10 uM replaced with compound containing fresh culture medium every 12 hrs measured for 72 hrs by Annexin V FITC/propidium iodide staining based flow cytometric analysis (reference value: 1%). The format is functional.
Assay [8] deals with A2780. The assay can be described thus: Induction of apoptosis in human A2780 cells assessed as viable cells at 10 uM replaced with compound containing fresh culture medium every 12 hrs measured for 72 hrs by Annexin V FITC/propidium iodide staining based flow cytometric analysis (reference value: 93.97%). Format: functional. Conditions: read-out: Activity.
The test system of assay [9] is HeLa. The assay can be described thus: Inhibition of cellular nuclear export in human HeLa cells transfected with hCRM1- C528T/F572Y dual mutant at 10 uM incubated for 72 hrs replaced with compound containing fresh culture medium every 12 hrs by Sulforhodamine B assay. Format: functional, cell-based.
Assay [10] concerns A2780. The assay can be described thus: Anti-cancer activity against human A2780 cells assessed as fold reduction in DNA synthesis rate at 10 uM incubated for 2 hrs by EdU incorporation based assay. The format is functional.
Assay [11] deals with HeLa. The assay can be described thus: Induction of apoptosis in human HeLa cells assessed as cell death at 1 to 10 uM treated for 12 hrs by Annexin V FITC/propidium iodide staining based flow cytometric analysis. The format is functional. Conditions: dose 1-10 µM.
The subject of assay [12] is A549. The assay can be described thus: Induction of apoptosis in human A549 cells assessed as cell death at 1 to 10 uM treated for 12 hrs by Annexin V FITC/propidium iodide staining based flow cytometric analysis. Format: functional. Conditions: dose 1-10 µM.

Structures are written as SMILES. The source made the active and inactive calls. The calls are words filed in the database; no cut-off is given here.

For `CC(C)CCNC/C=C/[S+]([O-])c1cc(C(F)(F)F)cc(C(F)(F)F)c1` (stereo not drawn), the inhibition entry with HeLa [1] and with Saccharomyces cerevisiae was “Active” each time. Besides, the IC50 (commonly the midpoint of a concentration-inhibition curve) with HeLa [2] worked out at 5.9 µM. Besides, the outcome in the assay with HeLa [3] and with A549 [4] was Active. The viability at 5 µM with A2780 [5] was determined as 79.2%. The Activity is 4.71% in the assay with A2780 [6], 4.19% with A2780 [7], “Dose-Dependent Effect” with HeLa [11] and “Dose-Dependent Effect” in the assay with A549 [12]. Also, the viability at 10 µM in the assay with A2780 [8] was 64.4%. In the assay on HeLa [9], the inhibition entry is “inactive”. For the same compound, in the assay with A2780 [10], the “fold change (FC)” value is 5.
